The structures appear in SMILES notation. Several values for one entry are separate records, joined by “and”; a condition that tells them apart may be missing. Equal entries are not always repeated. Toxic doses and inconclusive results are not listed.

Experiment [1] has as its system BDF1 mice, L1210 leukemia sc, survival T/C. The experiment is described as follows: NCI In Vivo Anticancer Drug Screen. Data for tumor model L1210 Leukemia (subcutaneous) in B6D2F1 (BDF1) mice. The following applies: endpoint: median survival time, higher = longer survival. The gist of the method:
(§1)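 Transplantable tumor-bearing mice; survival or tumor size recorded; result = T/C, treated vs vehicle control.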

For experiment [2], the system named is BDF1 mice, L1210 leukemia sc. The experiment is described as above. The following applies: endpoint: mean tumor weight, vehicle: water, higher = larger tumour. The gist of the method: as §1

On to `O=C(NO)c1ccncc1`, for which the T/C in experiment [1] (dose: 67.0 mg/kg/injection, schedule: Q#B X027 (ip), vehicle: water) is 108 % of control; in experiment [1] (dose: 133.0 mg/kg/injection, schedule: Q#B X027 (ip), vehicle: water), 108 % of control; in experiment [1] (dose: 200.0 mg/kg/injection, schedule: Q01DX009 (ip), vehicle: water), 108 % of control; in experiment [1] (dose: 200.0 mg/kg/injection, schedule: Q#B X027 (ip), vehicle: water), 116 % of control; in experiment [1] (dose: 267.0 mg/kg/injection, schedule: Q#B X027 (ip), vehicle: water), 108 % of control; in experiment [2] (dose: 67.0 mg/kg/injection, schedule: Q#B X027 (ip)), 68 % of control. Moreover, the T/C in experiment [2] (dose: 133.0 mg/kg/injection, schedule: Q#B X027 (ip)) is 58 % of control; in experiment [2] (dose: 200.0 mg/kg/injection, schedule: Q01DX009 (ip)), 60 % of control; in experiment [2] (dose: 200.0 mg/kg/injection, schedule: Q#B X027 (ip)), 57 % of control; in experiment [2] (dose: 267.0 mg/kg/injection, schedule: Q#B X027 (ip)), 41 % of control.
Take `O=NN(CCCl)C(=O)NC1CCCCC1`: the T/C in experiment [1] (dose: 2.5 mg/kg/injection, schedule: Q01DX009 (sc), vehicle: other) is 123 % of control; in experiment [1] (dose: 3.0 mg/kg/injection, schedule: Q01DX Z (sc), vehicle: carboxymethylcellulose (CMC)), 110 % of control; in experiment [1] (dose: 5.0 mg/kg/injection, schedule: Q01DX009 (sc), vehicle: other), 158 % of control; in experiment [1] (dose: 5.0 mg/kg/injection, schedule: Q01DX Z (oral), vehicle: carboxymethylcellulose (CMC)), 221 % of control; in experiment [1] (dose: 5.0 mg/kg/injection, schedule: Q01DX Z (sc), vehicle: carboxymethylcellulose (CMC)) it was 120 % of control; in experiment [1] (dose: 8.0 mg/kg/injection, schedule: Q01DX009 (ip), vehicle: other), 152 % of control. Further, the T/C was 447 % of control in experiment [1] (dose: 8.4 mg/kg/injection, schedule: Q01DX Z (oral), vehicle: carboxymethylcellulose (CMC)); 315 % of control and 421 % of control in experiment [1] (dose: 8.4 mg/kg/injection, schedule: Q01DX Z (sc), vehicle: carboxymethylcellulose (CMC)); 100 % of control in experiment [1] (dose: 8.4 mg/kg/injection, schedule: Q07DX Z (sc), vehicle: carboxymethylcellulose (CMC)); 160 % of control in experiment [1] (dose: 10.0 mg/kg/injection, schedule: Q01DX009 (sc), vehicle: other); 120 % of control in experiment [1] (dose: 14.0 mg/kg/injection, schedule: Q01DX001 (sc), vehicle: carboxymethylcellulose (CMC)); 410 % of control in experiment [1] (dose: 14.0 mg/kg/injection, schedule: Q01DX Z (oral), vehicle: carboxymethylcellulose (CMC)). In addition, the T/C in experiment [1] (dose: 14.0 mg/kg/injection, schedule: Q01DX Z (sc), vehicle: carboxymethylcellulose (CMC)) is 400 % of control and 560 % of control; in experiment [1] (dose: 14.0 mg/kg/injection, schedule: Q07DX Z (sc), vehicle: carboxymethylcellulose (CMC)), 165 % of control; in experiment [1] (dose: 20.0 mg/kg/injection, schedule: Q01DX009 (sc), vehicle: other), 163 % of control; in experiment [1] (dose: 23.0 mg/kg/injection, schedule: Q01DX001 (sc), vehicle: carboxymethylcellulose (CMC)), 150 % of control; in experiment [1] (dose: 23.0 mg/kg/injection, schedule: Q01DX Z (oral), vehicle: carboxymethylcellulose (CMC)), 215 % of control; in experiment [1] (dose: 23.0 mg/kg/injection, schedule: Q01DX Z (sc), vehicle: carboxymethylcellulose (CMC)), 265 % of control and 273 % of control. The T/C in experiment [1] (dose: 23.0 mg/kg/injection, schedule: Q07DX Z (sc), vehicle: carboxymethylcellulose (CMC)) was 170 % of control; in experiment [1] (dose: 32.0 mg/kg/injection, schedule: Q01DX009 (ip), vehicle: other), 120 % of control; in experiment [1] (dose: 39.0 mg/kg/injection, schedule: Q01DX001 (sc), vehicle: carboxymethylcellulose (CMC)), 295 % of control; in experiment [1] (dose: 39.0 mg/kg/injection, schedule: Q01DX Z (oral), vehicle: carboxymethylcellulose (CMC)), 157 % of control; in experiment [1] (dose: 39.0 mg/kg/injection, schedule: Q07DX Z (sc), vehicle: carboxymethylcellulose (CMC)), 750 % of control; in experiment [1] (dose: 65.0 mg/kg/injection, schedule: Q01DX001 (sc), vehicle: carboxymethylcellulose (CMC)) it was 355 % of control. In addition, the T/C in experiment [1] (dose: 65.0 mg/kg/injection, schedule: Q07DX Z (sc), vehicle: carboxymethylcellulose (CMC)) is 330 % of control; in experiment [1] (dose: 108.0 mg/kg/injection, schedule: Q01DX001 (sc), vehicle: carboxymethylcellulose (CMC)) it was 750 % of control.
Turning to `Clc1ncnc2c1ncn2C1CCCO1` (stereo not given), the T/C is 100 % of control in experiment [1] (dose: 8.4 mg/kg/injection, schedule: Q01DX Z (sc), vehicle: methylcellulose (MC)); 100 % of control in experiment [1] (dose: 14.0 mg/kg/injection, schedule: Q01DX Z (sc), vehicle: methylcellulose (MC)); 100 % of control in experiment [1] (dose: 23.0 mg/kg/injection, schedule: Q01DX Z (sc), vehicle: methylcellulose (MC)); 100 % of control in experiment [1] (dose: 39.0 mg/kg/injection, schedule: Q01DX Z (sc), vehicle: methylcellulose (MC)); 100 % of control in experiment [1] (dose: 65.0 mg/kg/injection, schedule: Q01DX Z (sc), vehicle: methylcellulose (MC)); 100 % of control in experiment [1] (dose: 108.0 mg/kg/injection, schedule: Q01DX Z (sc), vehicle: methylcellulose (MC)). In addition, the T/C is 100 % of control in experiment [1] (dose: 180.0 mg/kg/injection, schedule: Q01DX Z (sc), vehicle: methylcellulose (MC)); 110 % of control in experiment [1] (dose: 300.0 mg/kg/injection, schedule: Q01DX Z (sc), vehicle: methylcellulose (MC)); 100 % of control in experiment [1] (dose: 500.0 mg/kg/injection, schedule: Q01DX Z (sc), vehicle: methylcellulose (MC)).
